Source: ChEMBL document CHEMBL3885881, “DrugMatrix”

Species: Rattus norvegicus
Experiment: DrugMatrix - Regimen: Daily Repeat
Type: toxicity, organism-based, Sprague-Dawley
Design: regimen Daily Repeat, gender Male, age 6-8 weeks
Details: in vivo, po, route oral GAVAGE, vehicle 100 % SALINE; for ABSOLUTE BASOPHIL / ABSOLUTE EOSINOPHIL / ABSOLUTE LYMPHOCYTE / ABSOLUTE MONOCYTE / ABSOLUTE SEGMENTED NEUTROPHIL / BASOPHIL / EOSINOPHIL / ERYTHROCYTE COUNT / HEMATOCRIT / HEMOGLOBIN / LEUKOCYTE COUNT / LYMPHOCYTE / MEAN CORPUSCULAR HEMOGLOBIN / MEAN CORPUSCULAR HEMOGLOBIN CONCENTRATION / MEAN CORPUSCULAR VOLUME / MONOCYTE / NEUTROPHIL / NUCLEATED RED BLOOD CELLS / PLATELET COUNT: tissue Blood; for ALANINE AMINOTRANSFERASE / ALBUMIN / ALKALINE PHOSPHATASE / ASPARTATE AMINOTRANSFERASE / BLOOD UREA NITROGEN / CARBON DIOXIDE / CHLORIDE / CHOLESTEROL / CREATINE PHOSPHOKINASE / CREATININE / GLUCOSE / LACTATE DEHYDROGENASE / LIPASE / PHOSPHORUS / POTASSIUM / SODIUM / TOTAL BILIRUBIN / TOTAL PROTEIN / URIC ACID: tissue Plasma
[1] = 0 mg/kg, 72 h, dose level Control, time 3 day
[2] = 0 mg/kg, 120 h, dose level Control, time 5 day
[3] = 29 mg/kg, 72 h, dose level Low, time 3 day

**Q.** What does the source list for `Cc1ccnc2c1NC(=O)c1cccnc1N2C1CC1` [NEVIRAPINE]?
**A.** ABSOLUTE BASOPHIL [1]: 0 CELLS/uL; ABSOLUTE EOSINOPHIL [1]: 37 CELLS/uL; ABSOLUTE LYMPHOCYTE [1]: 12359.33 CELLS/uL; ABSOLUTE MONOCYTE [1]: 122.67 CELLS/uL; ABSOLUTE SEGMENTED NEUTROPHIL [1]: 847.67 CELLS/uL; BASOPHIL [1]: 0%; EOSINOPHIL [1]: 0.33%; ERYTHROCYTE COUNT [1]: 5.75 x10E6/uL; HEMATOCRIT [1]: 36.08%; HEMOGLOBIN [1]: 14.07 G/DL; LEUKOCYTE COUNT [1]: 13.37 x10E3/uL; LYMPHOCYTE [1]: 92.5%; MEAN CORPUSCULAR HEMOGLOBIN [1]: 24.47 pg; MEAN CORPUSCULAR HEMOGLOBIN CONCENTRATION [1]: 38.98 G/DL; MEAN CORPUSCULAR VOLUME [1]: 62.78 fL; MONOCYTE [1]: 1%; NEUTROPHIL [1]: 6.17%; NUCLEATED RED BLOOD CELLS [1]: 0.17 /100WBC; PLATELET COUNT [1]: 1202.17 x10E3/uL; ALANINE AMINOTRANSFERASE [1]: 50.67 u/L; ALBUMIN [1]: 4.13 G/DL; ALKALINE PHOSPHATASE [1]: 356.33 u/L; ASPARTATE AMINOTRANSFERASE [1]: 78.17 u/L; BLOOD UREA NITROGEN [1]: 14.17 mg/dL; CARBON DIOXIDE [1]: 31.33 mmol/L; CHLORIDE [1]: 98.5 MEQ/L; CHOLESTEROL [1]: 76.5 mg/dL; CREATINE PHOSPHOKINASE [1]: 248.33 u/L; CREATININE [1]: 0.2 mg/dL; GLUCOSE [1]: 144 mg/dL; LACTATE DEHYDROGENASE [1]: 107 u/L; LIPASE [1]: 9.83 u/L; PHOSPHORUS [1]: 12.8 mg/dL; POTASSIUM [1]: 6.75 MEQ/L; SODIUM [1]: 142 MEQ/L; TOTAL BILIRUBIN [1]: 0.18 mg/dL; TOTAL PROTEIN [1]: 5.98 G/DL; URIC ACID [1]: 1.42 mg/dL; ABSOLUTE BASOPHIL [2]: 0 CELLS/uL; ABSOLUTE EOSINOPHIL [2]: 0 CELLS/uL; ABSOLUTE LYMPHOCYTE [2]: 8681.17 CELLS/uL; ABSOLUTE MONOCYTE [2]: 79.83 CELLS/uL; ABSOLUTE SEGMENTED NEUTROPHIL [2]: 689 CELLS/uL; BASOPHIL [2]: 0%; EOSINOPHIL [2]: 0%; ERYTHROCYTE COUNT [2]: 5.49 x10E6/uL; HEMATOCRIT [2]: 33.55%; HEMOGLOBIN [2]: 13.1 G/DL; LEUKOCYTE COUNT [2]: 9.45 x10E3/uL; LYMPHOCYTE [2]: 92.33%; MEAN CORPUSCULAR HEMOGLOBIN [2]: 23.92 pg; MEAN CORPUSCULAR HEMOGLOBIN CONCENTRATION [2]: 39.07 G/DL; MEAN CORPUSCULAR VOLUME [2]: 61.22 fL; MONOCYTE [2]: 0.67%; NEUTROPHIL [2]: 7%; NUCLEATED RED BLOOD CELLS [2]: 0.17 /100WBC; PLATELET COUNT [2]: 1001.17 x10E3/uL; ALANINE AMINOTRANSFERASE [2]: 49.33 u/L; ALBUMIN [2]: 4.07 G/DL; ALKALINE PHOSPHATASE [2]: 300.33 u/L; ASPARTATE AMINOTRANSFERASE [2]: 83.5 u/L; BLOOD UREA NITROGEN [2]: 16 mg/dL; CARBON DIOXIDE [2]: 29.67 mmol/L; CHLORIDE [2]: 100.5 MEQ/L; CHOLESTEROL [2]: 74.33 mg/dL; CREATINE PHOSPHOKINASE [2]: 489.67 u/L; CREATININE [2]: 0.35 mg/dL; GLUCOSE [2]: 151 mg/dL; LACTATE DEHYDROGENASE [2]: 133.67 u/L; LIPASE [2]: 11.17 u/L; PHOSPHORUS [2]: 10.88 mg/dL; POTASSIUM [2]: 5.5 MEQ/L; SODIUM [2]: 145.7 MEQ/L; TOTAL BILIRUBIN [2]: 0.2 mg/dL; TOTAL PROTEIN [2]: 6.05 G/DL; URIC ACID [2]: 0.68 mg/dL; ABSOLUTE BASOPHIL [3]: 0 CELLS/uL; ABSOLUTE EOSINOPHIL [3]: 29.67 CELLS/uL; ABSOLUTE LYMPHOCYTE [3]: 8345.33 CELLS/uL; ABSOLUTE MONOCYTE [3]: 0 CELLS/uL; ABSOLUTE SEGMENTED NEUTROPHIL [3]: 725 CELLS/uL; BASOPHIL [3]: 0%; EOSINOPHIL [3]: 0.33%; ERYTHROCYTE COUNT [3]: 5.42 x10E6/uL; HEMATOCRIT [3]: 33.9%; HEMOGLOBIN [3]: 13.2 G/DL; LEUKOCYTE COUNT [3]: 9.1 x10E3/uL; LYMPHOCYTE [3]: 91.67%; MEAN CORPUSCULAR HEMOGLOBIN [3]: 24.43 pg; MEAN CORPUSCULAR HEMOGLOBIN CONCENTRATION [3]: 38.93 G/DL; MEAN CORPUSCULAR VOLUME [3]: 62.7 fL; MONOCYTE [3]: 0%; NEUTROPHIL [3]: 8%; NUCLEATED RED BLOOD CELLS [3]: 0 /100WBC; PLATELET COUNT [3]: 673.67 x10E3/uL; ALANINE AMINOTRANSFERASE [3]: 74.33 u/L; ALBUMIN [3]: 4.3 G/DL; ALKALINE PHOSPHATASE [3]: 343.67 u/L; ASPARTATE AMINOTRANSFERASE [3]: 123.67 u/L; BLOOD UREA NITROGEN [3]: 10.33 mg/dL; CARBON DIOXIDE [3]: 28.33 mmol/L; CHOLESTEROL [3]: 68.67 mg/dL; CREATINE PHOSPHOKINASE [3]: 179.33 u/L; CREATININE [3]: 0.43 mg/dL; GLUCOSE [3]: 142.67 mg/dL; LACTATE DEHYDROGENASE [3]: 65.33 u/L; LIPASE [3]: 15.67 u/L; PHOSPHORUS [3]: 10.83 mg/dL; TOTAL BILIRUBIN [3]: 0.13 mg/dL; TOTAL PROTEIN [3]: 5.03 G/DL; URIC ACID [3]: 0.37 mg/dL; ABSOLUTE BASOPHIL (29 mg/kg, 120 h, dose level Low, time 5 day): 0 CELLS/uL
